According to the supplement of paper PMC10307832:

Key:
Assay in all cases: relative viability (nuclei count vs DMSO), 5 days (fraction); higher = more cells survive
NCI-H647 = tested on: NCI-H647
Summary of the method: (§1)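 After 5 days of treatment, lung cancer cells in 1536-well plates were fixed and stained in a single step (final 0.05% Triton X-100, 1% formaldehyde, 1 ug/ml Hoechst) and their nuclei counted on 4× images. Treatment had been applied by pin tool the day after seeding as one drug alone or as a fixed anchor-drug dose with five library-drug doses (not always all listed) in √10 steps. Relative viability is the nuclei count of treated wells divided by that of vehicle wells, and values are medians of duplicate plates.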

EPLC-272H = tested on: EPLC-272H
Summary of the method: as §1

SW 1573 = tested on: SW 1573
Summary of the method: as §1

LCLC-97TM1 = tested on: LCLC-97TM1
Summary of the method: as §1

PC-3 [JPC-3] = tested on: PC-3 [JPC-3]
Summary of the method: as §1

HCC-44 = tested on: HCC-44
Summary of the method: as §1

H3255 = tested on: H3255
Summary of the method: as §1

BEN = tested on: BEN
Summary of the method: as §1

NCI-H650 = tested on: NCI-H650
Summary of the method: as §1

201T = tested on: 201T
Summary of the method: as §1

NCI-H2170 = tested on: NCI-H2170
Summary of the method: as §1

NCI-H2085 = tested on: NCI-H2085
Summary of the method: as §1

NCI-H1437 = tested on: NCI-H1437
Summary of the method: as §1

NCI-H2342 = tested on: NCI-H2342
Summary of the method: as §1

NCI-H2087 = tested on: NCI-H2087
Summary of the method: as §1

LU99A = tested on: LU99A
Summary of the method: as §1

NCI-H1975 = tested on: NCI-H1975
Summary of the method: as §1

HCC-827 = tested on: HCC-827
Summary of the method: as §1

COR-L 105 = tested on: COR-L 105
Summary of the method: as §1

EKVX = tested on: EKVX
Summary of the method: as §1

NCI-H1666 = tested on: NCI-H1666
Summary of the method: as §1

LOU-NH91 = tested on: LOU-NH91
Summary of the method: as §1

With `COc1nc(C)cnc1NS(=O)(=O)c1cccnc1-c1ccc(-c2nnco2)cc1` [Zibotentan] + COc1cccc2cc(-c3nc([C@H]4CC[C@H](C(=O)O)CC4)n4ncnc(N)c34)[nH]c12 [OSI-027] (partner 0.5 µM) the relative viability (NCI-H647; first compound 0.08 µM) was 0.665, the relative viability (NCI-H647; first compound 0.253 µM) was 0.584 and the relative viability (NCI-H647; first compound 0.8 µM) was 0.755. It also gave a relative viability (NCI-H647; first compound 2.53 µM) of 0.725, a relative viability (EPLC-272H; first compound 0.08 µM) of 0.328 and a relative viability (EPLC-272H; first compound 0.253 µM) of 0.287. It also gave a relative viability (EPLC-272H; first compound 0.8 µM) of 0.269, a relative viability (EPLC-272H; first compound 2.53 µM) of 0.301 and a relative viability (SW 1573; first compound 0.08 µM) of 0.651. The relative viability (SW 1573; first compound 0.8 µM) was 0.699, the relative viability (SW 1573; first compound 2.53 µM) was 0.659 and the relative viability (LCLC-97TM1; first compound 0.08 µM) was 0.602. It also gave a relative viability (LCLC-97TM1; first compound 0.253 µM) of 0.72, a relative viability (LCLC-97TM1; first compound 0.8 µM) of 0.606 and a relative viability (LCLC-97TM1; first compound 2.53 µM) of 0.49. For the same compound, the relative viability (PC-3 [JPC-3]; first compound 0.08 µM) was 0.789, the relative viability (PC-3 [JPC-3]; first compound 0.253 µM) was 0.791 and the relative viability (PC-3 [JPC-3]; first compound 0.8 µM) was 0.737. The relative viability (PC-3 [JPC-3]; first compound 2.53 µM) was 0.89, the relative viability (HCC-44; first compound 0.08 µM) was 0.585 and the relative viability (HCC-44; first compound 0.8 µM) was 0.621. It also gave a relative viability (HCC-44; first compound 2.53 µM) of 0.558, a relative viability (H3255; first compound 0.08 µM) of 0.536 and a relative viability (H3255; first compound 0.253 µM) of 0.542. For the same compound, the relative viability (H3255; first compound 0.8 µM) was 0.576, the relative viability (H3255; first compound 2.53 µM) was 0.526 and the relative viability (BEN; first compound 0.08 µM) was 0.301. The relative viability (BEN; first compound 0.253 µM) was 0.286, the relative viability (BEN; first compound 0.8 µM) was 0.27 and the relative viability (BEN; first compound 2.53 µM) was 0.261. The relative viability (NCI-H650; first compound 0.08 µM) was 0.54, the relative viability (NCI-H650; first compound 0.253 µM) was 0.509 and the relative viability (NCI-H650; first compound 0.8 µM) was 0.566. For the same compound, the relative viability (NCI-H650; first compound 2.53 µM) was 0.649, the relative viability (201T; first compound 0.08 µM) was 0.819 and the relative viability (201T; first compound 0.253 µM) was 0.699. For the same compound, the relative viability (201T; first compound 0.8 µM) was 0.679, the relative viability (201T; first compound 2.53 µM) was 0.755 and the relative viability (NCI-H2170; first compound 0.08 µM) was 0.702. It also gave a relative viability (NCI-H2170; first compound 0.253 µM) of 0.761, a relative viability (NCI-H2170; first compound 0.8 µM) of 0.64 and a relative viability (NCI-H2170; first compound 2.53 µM) of 0.791. For the same compound, the relative viability (NCI-H2085; first compound 0.08 µM) was 0.78, the relative viability (NCI-H2085; first compound 0.253 µM) was 0.727 and the relative viability (NCI-H2085; first compound 0.8 µM) was 0.442. It also gave a relative viability (NCI-H2085; first compound 2.53 µM) of 0.832, a relative viability (NCI-H1437; first compound 0.08 µM) of 0.845 and a relative viability (NCI-H1437; first compound 0.253 µM) of 0.84. The relative viability (NCI-H1437; first compound 0.8 µM) was 0.855, the relative viability (NCI-H1437; first compound 2.53 µM) was 0.919 and the relative viability (NCI-H2342; first compound 0.08 µM) was 0.621. For the same compound, the relative viability (NCI-H2342; first compound 0.253 µM) was 0.559, the relative viability (NCI-H2342; first compound 0.8 µM) was 0.576 and the relative viability (NCI-H2342; first compound 2.53 µM) was 0.758. It also gave a relative viability (NCI-H2087; first compound 0.08 µM) of 0.506, a relative viability (NCI-H2087; first compound 0.253 µM) of 0.506 and a relative viability (NCI-H2087; first compound 0.8 µM) of 0.613. The relative viability (NCI-H2087; first compound 2.53 µM) was 0.632, the relative viability (LU99A; first compound 0.08 µM) was 0.32 and the relative viability (LU99A; first compound 0.253 µM) was 0.302. It also gave a relative viability (LU99A; first compound 0.8 µM) of 0.274, a relative viability (LU99A; first compound 2.53 µM) of 0.338 and a relative viability (NCI-H1975; first compound 0.08 µM) of 0.783. For the same compound, the relative viability (NCI-H1975; first compound 0.253 µM) was 0.696, the relative viability (NCI-H1975; first compound 0.8 µM) was 0.566 and the relative viability (NCI-H1975; first compound 2.53 µM) was 0.661. It also gave a relative viability (HCC-827; first compound 0.08 µM) of 0.826, a relative viability (HCC-827; first compound 0.253 µM) of 0.836 and a relative viability (HCC-827; first compound 0.8 µM) of 0.754. The relative viability (HCC-827; first compound 2.53 µM) was 0.767, the relative viability (COR-L 105; first compound 0.08 µM) was 0.822 and the relative viability (COR-L 105; first compound 0.253 µM) was 0.618. For the same compound, the relative viability (COR-L 105; first compound 0.8 µM) was 0.941, the relative viability (COR-L 105; first compound 2.53 µM) was 0.909 and the relative viability (EKVX; first compound 0.08 µM) was 0.715. The relative viability (EKVX; first compound 0.253 µM) was 0.706, the relative viability (EKVX; first compound 0.8 µM) was 0.695 and the relative viability (EKVX; first compound 2.53 µM) was 0.77. For the same compound, the relative viability (NCI-H1666; first compound 0.08 µM) was 0.929, the relative viability (NCI-H1666; first compound 0.253 µM) was 0.751 and the relative viability (NCI-H1666; first compound 0.8 µM) was 0.814. It also gave a relative viability (NCI-H1666; first compound 2.53 µM) of 0.877, a relative viability (LOU-NH91; first compound 0.08 µM) of 0.673 and a relative viability (LOU-NH91; first compound 0.253 µM) of 0.681. The relative viability (LOU-NH91; first compound 0.8 µM) was 0.732 and the relative viability (LOU-NH91; first compound 2.53 µM) was 0.784.
